According to PubChem BioAssay AID1963847 (Molecular Pharmacology Branch, DTP, NCI, 2024):

Tested on: 415267-285-R-J2-PDC complex spheroid viability
Assay: Anticancer human tumor 415267-285-R-J2-PDC patient-derived breast carcinoma cell line growth inhibition [POLQ]
Conditions: for IC50: curve of first compound; for viability, T/C: stronger effect = lower value
Method in brief: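 Complex spheroid viability model combining PDC tumour cells with endothelial (HUVEC) and MSC stromal cells. Novobiocin, ART-558 or RP6685 were tested singly and in combination with standard and investigational anticancer drugs. Each was titrated in half-log steps from near clinical Cmax, or from 10 microM where Cmax was unknown.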

[1] = second compound 0.0316 µM, first compound 0.0316 µM
[2] = second compound 0.0316 µM, first compound 0.1 µM
[3] = second compound 0.0316 µM, first compound 0.316 µM
[4] = second compound 0.0316 µM, first compound 1 µM
[5] = second compound 0.0316 µM, first compound 3.16 µM
[6] = second compound 0.0316 µM, first compound 10 µM
[7] = second compound 0.1 µM, first compound 0.0316 µM
[8] = second compound 0.1 µM, first compound 0.1 µM
[9] = second compound 0.1 µM, first compound 0.316 µM
[10] = second compound 0.1 µM, first compound 1 µM
[11] = second compound 0.1 µM, first compound 3.16 µM
[12] = second compound 0.1 µM, first compound 10 µM
[13] = second compound 0.316 µM, first compound 0.0316 µM
[14] = second compound 0.316 µM, first compound 0.1 µM
[15] = second compound 0.316 µM, first compound 0.316 µM
[16] = second compound 0.316 µM, first compound 1 µM
[17] = second compound 0.316 µM, first compound 3.16 µM
[18] = second compound 0.316 µM, first compound 10 µM
[19] = second compound 1 µM, first compound 0.0316 µM
[20] = second compound 1 µM, first compound 0.1 µM
[21] = second compound 1 µM, first compound 0.316 µM
[22] = second compound 1 µM, first compound 1 µM
[23] = second compound 1 µM, first compound 3.16 µM
[24] = second compound 1 µM, first compound 10 µM
[25] = second compound 3.16 µM, first compound 0.0316 µM
[26] = second compound 3.16 µM, first compound 0.1 µM
[27] = second compound 3.16 µM, first compound 0.316 µM
[28] = second compound 3.16 µM, first compound 1 µM
[29] = second compound 3.16 µM, first compound 3.16 µM
[30] = second compound 3.16 µM, first compound 10 µM
[31] = second compound 10 µM, first compound 0.0316 µM
[32] = second compound 10 µM, first compound 0.1 µM
[33] = second compound 10 µM, first compound 0.316 µM
[34] = second compound 10 µM, first compound 1 µM
[35] = second compound 10 µM, first compound 3.16 µM
[36] = second compound 10 µM, first compound 10 µM
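Further: spheroids exposed to compounds for one week before readout.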
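Wherever viability, T/C is given: luminescence used as stand-in measure of viable cells; 100% = DMSO vehicle control viability.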

CC1COCCN1c1cc(-c2ccnn2C)c2ccnc(-c3ccn[nH]3)c2n1 (stereo unspecified) + COC1C(OC(N)=O)C(O)C(Oc2ccc3c(O)c(NC(=O)c4ccc(O)c(CC=C(C)C)c4)c(=O)oc3c2C)OC1(C)C
IC50 (second compound 0.0316 µM): < 31.6 nM
IC50 (second compound 0.1 µM): 36.3 nM
IC50 (second compound 0.316 µM): < 31.6 nM
IC50 (second compound 1 µM): 39 nM
IC50 (second compound 3.16 µM): 35.4 nM
IC50 (second compound 10 µM): 41.2 nM
viability, T/C [1]: 47%
viability, T/C [2]: 12.6%
viability, T/C [3]: 6.23%
viability, T/C [4]: 5.27%
viability, T/C [5]: 4.48%
viability, T/C [6]: 3.41%
viability, T/C [7]: 55.3%
viability, T/C [8]: 11.5%
viability, T/C [9]: 6.16%
viability, T/C [10]: 3.96%
viability, T/C [11]: 4.03%
viability, T/C [12]: 4.38%
viability, T/C [13]: 48.4%
viability, T/C [14]: 11.8%
viability, T/C [15]: 5.97%
viability, T/C [16]: 5.08%
viability, T/C [17]: 4.16%
viability, T/C [18]: 5.11%
viability, T/C [19]: 58.5%
viability, T/C [20]: 11.5%
viability, T/C [21]: 5.09%
viability, T/C [22]: 6.05%
viability, T/C [23]: 4.42%
viability, T/C [24]: 4.44%
viability, T/C [25]: 53.9%
viability, T/C [26]: 15.8%
viability, T/C [27]: 7.15%
viability, T/C [28]: 5.85%
viability, T/C [29]: 4.13%
viability, T/C [30]: 4.16%
viability, T/C [31]: 61.3%
viability, T/C [32]: 12.8%
viability, T/C [33]: 6.51%
viability, T/C [34]: 4.55%
viability, T/C [35]: 4.33%
viability, T/C [36]: 4.73%

CC1COCCN1c1cc(C2(S(C)(=N)=O)CC2)nc(-c2ccnc3[nH]ccc23)n1 (stereo unspecified) + COC1C(OC(N)=O)C(O)C(Oc2ccc3c(O)c(NC(=O)c4ccc(O)c(CC=C(C)C)c4)c(=O)oc3c2C)OC1(C)C
IC50 (second compound 0.0316 µM): 463 nM
IC50 (second compound 0.1 µM): 432 nM
IC50 (second compound 0.316 µM): 504 nM
IC50 (second compound 1 µM): 512 nM
IC50 (second compound 3.16 µM): 591 nM
IC50 (second compound 10 µM): 513 nM
viability, T/C [1]: 105%
viability, T/C [2]: 108%
viability, T/C [3]: 67.2%
viability, T/C [4]: 14.9%
viability, T/C [5]: 6.29%
viability, T/C [6]: 4.89%
viability, T/C [7]: 105%
viability, T/C [8]: 96.6%
viability, T/C [9]: 65.3%
viability, T/C [10]: 9.55%
viability, T/C [11]: 5.9%
viability, T/C [12]: 4.32%
viability, T/C [13]: 95.4%
viability, T/C [14]: 96.3%
viability, T/C [15]: 76.2%
viability, T/C [16]: 11.6%
viability, T/C [17]: 7.22%
viability, T/C [18]: 5.59%
viability, T/C [19]: 93.2%
viability, T/C [20]: 97.7%
viability, T/C [21]: 76.2%
viability, T/C [22]: 13.5%
viability, T/C [23]: 10%
viability, T/C [24]: 4.78%
viability, T/C [25]: 95%
viability, T/C [26]: 105%
viability, T/C [27]: 89.8%
viability, T/C [28]: 16.4%
viability, T/C [29]: 6.8%
viability, T/C [30]: 4.43%
viability, T/C [31]: 97.5%
viability, T/C [32]: 97.9%
viability, T/C [33]: 76.5%
viability, T/C [34]: 13.5%
viability, T/C [35]: 6.73%
viability, T/C [36]: 5.32%

CCCS(=O)(=O)Nc1ccc(F)c(C(=O)c2c[nH]c3ncc(-c4ccc(Cl)cc4)cc23)c1F + COC1C(OC(N)=O)C(O)C(Oc2ccc3c(O)c(NC(=O)c4ccc(O)c(CC=C(C)C)c4)c(=O)oc3c2C)OC1(C)C
IC50 (second compound 0.0316 µM): > 10000 nM
IC50 (second compound 0.1 µM): > 10000 nM
IC50 (second compound 0.316 µM): > 10000 nM
IC50 (second compound 1 µM): > 10000 nM
IC50 (second compound 3.16 µM): > 10000 nM
IC50 (second compound 10 µM): > 10000 nM
viability, T/C [1]: 123%
viability, T/C [2]: 102%
viability, T/C [3]: 94.5%
viability, T/C [4]: 89%
viability, T/C [5]: 110%
viability, T/C [6]: 66.4%
viability, T/C [7]: 103%
viability, T/C [8]: 100%
viability, T/C [9]: 97.3%
viability, T/C [10]: 101%
viability, T/C [11]: 111%
viability, T/C [12]: 66.5%
viability, T/C [13]: 101%
viability, T/C [14]: 105%
viability, T/C [15]: 99%
viability, T/C [16]: 104%
viability, T/C [17]: 92.4%
viability, T/C [18]: 70.9%
viability, T/C [19]: 103%
viability, T/C [20]: 106%
viability, T/C [21]: 94%
viability, T/C [22]: 94.8%
viability, T/C [23]: 92.6%
viability, T/C [24]: 64.7%
viability, T/C [25]: 109%
viability, T/C [26]: 96.6%
viability, T/C [27]: 90.2%
viability, T/C [28]: 95.2%
viability, T/C [29]: 101%
viability, T/C [30]: 60.5%
viability, T/C [31]: 116%
viability, T/C [32]: 106%
viability, T/C [33]: 97.8%
viability, T/C [34]: 91.4%
viability, T/C [35]: 93.2%
viability, T/C [36]: 88.4%
